This note sets out measurements from publication PMC4967021 (Biochemical and biophysical research communications, 2016).

The structures appear in SMILES notation.

The target in the test is T1, CCL21 (Homo sapiens, UniProt O00585).
T1 sequence (O00585 24-134): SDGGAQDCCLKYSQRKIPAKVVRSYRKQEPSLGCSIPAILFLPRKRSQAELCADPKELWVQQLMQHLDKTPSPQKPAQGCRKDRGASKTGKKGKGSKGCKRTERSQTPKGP
Kind of test: […]-1H HSQC NMR titration, chemical shift perturbation fit with ligand depletion. The test is classed as binding. The following applies: 100 µM 15N-CCL21, 25 mM deuterated MES pH 6.0, 10% D2O, 0.2% NaN3.

Consider `O=C(O)C1=C[C@H](O)[C@@H](OS(=O)(=O)O)[C@H](O[C@H]2[C@H](O)[C@@H](NS(=O)(=O)O)C(O)O[C@@H]2COS(=O)(=O)O)O1` (stereo partly shown) [heparin disaccharide I-S], for which the Kd (as a rule, the concentration at which binding is half-saturated) was approximately 500 µM.
